Like-named read-outs stand apart in the source and are kept apart here.

Common to all, as to type: in vivo
The test system of one series is Swiss white mice. The series is described as follows: Mammalian toxicity, oral, Swiss white mice (LD50). The following applies: propylene glycol carrier. How it is done: (§1) For mice toxicity, the compound was dissolved in propyleneglycol or corn oil as a carrier and all compounds were tested at the level up to 1,000 mg/kg. All of the above noted compounds tested were lower in toxicity as compared with the parent compounds.
(§2) Mammalian toxicity was determined against Swiss white mice.

In series [1] the test system is house flies, Musca domestica. The series is described as follows: whole plant or invertebrate. The following applies: read-out: House flies LD50.
Description: In another series of tests, stock 1% concentrated solutions of each of the test compounds of Table I below, and of the commercial related carbamate ester insecticides methomyl, carbofuran and oxamyl, were made in acetone, and such solutions were diluted with acetone to a concentration of 0.001-0.8%. House flies were treated topically on the notum by 1 μl of each of the diluted acetone solutions and percent mortality was counted 24 hours after application.
Series [2] in a line: Mammalian toxicity, oral, Swiss white mice (LD50). Conditions: mouse, in vivo, propylene glycol carrier. How it is done:
as §1, §2

[3] abbreviates: topical on the notum, 1 μl of 0.001-0.8% acetone solutions, 24 hours, 60° F.

Consider “3-Methylphenyl N-(2-phenyl-1,3-dioxane-5-ylmethoxysulfinyl)-N-methylcarbamate [XVIII]”, for which, in the series with Swiss white mice, the “Mice LD50” value is recorded as > 1,000 mg/kg.

In general, LD50 refers to the dose expected to kill half of the subjects tested. For the compound `CSC(=NOC(=O)N(C)S(=O)OC1COC(c2ccccc2)OC1)C(=O)N(C)C` (stereo not shown) [XXVII, S-Methyl N-(2-phenyl-1,3-dioxane-5-ylmethoxysulfinyl)-N-methylcarbamoyloxy-2-(N',N'-dimethylamino)-2-oxoethanimidothioate], the 50% lethal dose (LD50) stood at 161 mg/kg in series [1] (setting [3]) and 25 mg/kg in series [2].

For the compound `CSC(=NOC(=O)N(C)S(=O)OCC1COC(C)(C)O1)C(=O)N(C)C` (stereo not shown) [XXVIII, S-Methyl N-(2,2-dimethyl-1,3-dioxolane-5-ylmethoxysulfinyl)-N-methylcarbamoyloxy-2-(N'N'-dimethylamino)-2-oxoethanimidothioate], the 50% lethal dose (LD50) in series [1] (setting [3]) amounted to 2.6 mg/kg; in series [2], 31 mg/kg.

In the case of `CSC(=NOC(=O)N(C)S(=O)OCC12OCC3OC(C)(C)OC3C1OC(C)(C)O2)C(=O)N(C)C` (stereo not drawn) [XXXIV, S-Methyl N-(2,3,4,5-Di-O-isopropylidene-1-α-O-fructopyranosylsulfinyl)-N-methylcarbamoyloxy-2-(N',N'-dimethylamino)-2-oxoethanimidothioate], the 50% lethal dose (LD50) in series [1] (setting [3]) came out at 20 mg/kg; in series [2] it was 44 mg/kg.

Regarding `CSC(=NOC(=O)N(C)S(=O)OC1C(C2COC(C)(C)O2)OC2OC(C)(C)OC21)C(=O)N(C)C` (stereo not shown) [XXXV, S-Methyl N-(1,2,5,6-di-O-isopropylidene-3-O-glucofuranosylsulfinyl) N-methylcarbamoyloxy-2-(N',N'-dimethylamino)-2-oxoethanimidothioate], the LD50 was 26.5 mg/kg in series [1] (setting [3]) and 25 to 50 mg/kg in series [2].

As for `CNC(=O)Oc1cccc2c1OC(C)(C)C2` [carbofuran, reference compound], the median lethal dose (LD50) in series [1] (topical, 24 h) worked out at 6.7 mg/kg; in series [2], 2 mg/kg.

In the case of `CNC(=O)ON=C(SC)C(=O)N(C)C` [oxamyl, reference compound], the LD50 worked out at 3.6 mg/kg in series [1] (setting [3]) and 3.7 mg/kg in series [2].

The record behind these values is US4315026A, “Alkylpolyoxysulfinyl and alkylpolythiosulfinyl derivatives of carbamate esters” (priority 1980, dated 1982).
